Source: US10954228B2 (NATIONAL INSTITUTES OF HEALTH, UNITED STATES DEPARTMENT OF …, priority 2016, dated 2021)

Assays:
Human LDHA = Human LDHA (Homo sapiens (Human), UniProt P00338); assay: human LDHA primary biochemical assay; conditions: biochemical LDHA inhibitory activity, assay of Example 1; activity level classes defined in nM
How it was run: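 Human LDHA at 2 nM with 0.06 mM NADH and 0.2 mM sodium pyruvate in 200 mM Tris HCl pH 7.4, 100 μM EDTA, 0.01% TWEEN-20 (final). NADH consumption coupled to resazurin/diaphorase (0.037 mM; 0.133 mg/mL); inhibition read by fluorescence.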

MiaPaCa2 cells = assay: cell-based HT lactate assay by colorimetric/fluorometric detection (cellular inhibition of lactate production); conditions: Homo sapiens, MIA PaCa-2, assay of Example 6
Protocol: This example describes a cell-based metabolite assay by colorimetric/fluorometric detection employed in the characterization of a compound of formula (I) in an embodiment of the invention.
Cell-based HT Lactate assay is a miniaturized Biovision Lactate Colorimetric/Fluorometric Assay Kit (Cat #K607-100). The assay is roughly a 3.5 hour assay run in a 1536 plate format. Cell number optimization should be run for each cell line to achieve an optimal number in which lactate production equals roughly 90% of the standard curve range. Cell number per well optimization has been performed with the following cell lines: MiaPaCa2—500 cells/well, SNU398—500 cells/well, and P493—500 cells/well.

SMILES	IC50 (Human LDHA) [nM]	IC50 (MiaPaCa2 cells) [nM]
CCC#Cc1cc(-c2nn(-c3nc(C(=O)O)cs3)c(CC3CC3)c2Cc2ccc([S+](N)(=O)[O-])c(F)c2)ccc1F [Compound 109, 2-(3-(3-(but-1-yn-1-yl)-4-fluorophenyl)-5-(cyclopropylmethyl)-4-(3-fluoro-4-sulfamoylbenzyl)-1H-pyrazol-1-yl)thiazole-4-carboxylic acid]		< 1000
CC(C)(C)c1ccc(C#Cc2cc(-c3nn(-c4nc(C(=O)O)cs4)c(CC4CC4)c3Cc3ccc(S(N)(=O)=O)c(F)c3)ccc2F)s1 [Compound 110, 2-(3-(3-((5-(tert-butyl)thiophen-2-yl)ethynyl)-4-fluorophenyl)-5-(cyclopropylmethyl)-4-(3-fluoro-4-sulfamoylbenzyl)-1H-pyrazol-1-yl)thiazole-4-carboxylic acid]	100 to 1000	< 1000
Cc1ccc(C#Cc2cccc(-c3nn(-c4nc(C(=O)O)cs4)c(CC4CC4)c3Cc3ccc(S(N)(=O)=O)c(F)c3)c2)s1 [Compound 112, 2-(5-(cyclopropylmethyl)-4-(3-fluoro-4-sulfamoylbenzyl)-3-(3-((5-methylthiophen-2-yl)ethynyl)phenyl)-1H-pyrazol-1-yl)thiazole-4-carboxylic acid]	< 100	< 1000
Cc1ccc(C#Cc2cc(-c3nn(-c4nc(C(=O)O)cs4)c(CCC4CC4)c3Cc3ccc(S(N)(=O)=O)c(F)c3)ccc2F)s1 [Compound 113, 2-(5-(2-cyclopropylethyl)-3-(4-fluoro-3-((5-methylthiophen-2-yl)ethynyl)phenyl)-4-(3-fluoro-4-sulfamoylbenzyl)-1H-pyrazol-1-yl)thiazole-4-carboxylic acid]	< 100	< 1000
Cc1cnc(C#Cc2cc(-c3nn(-c4nc(C(=O)O)cs4)c(CC4CC4)c3Cc3ccc(S(N)(=O)=O)c(F)c3)ccc2F)s1 [Compound 114, 2-(5-(cyclopropylmethyl)-3-(4-fluoro-3-((5-methylthiazol-2-yl)ethynyl)phenyl)-4-(3-fluoro-4-sulfamoylbenzyl)-1H-pyrazol-1-yl) thiazole-4-carboxylic acid]	< 100	< 1000
Cc1ccc(C#Cc2cccc(-c3nn(-c4nc(C(=O)O)cs4)c(CCC4CC4)c3Cc3ccc(S(N)(=O)=O)c(F)c3)c2)s1 [Compound 115, 2-(5-(2-cyclopropylethyl)-4-(3-fluoro-4-sulfamoylbenzyl)-3-(3-((5-methylthiophen-2-yl)ethynyl)phenyl)-1H-pyrazol-1-yl)thiazole-4-carboxylic acid]	< 100	< 1000
CC(C)c1ccc(-c2cc(-c3nn(-c4nc(C(=O)O)cs4)c(CC4CC4)c3Cc3ccc(S(N)(=O)=O)c(F)c3)ccc2F)cc1 [Compound 142, 2-(5-(cyclopropylmethyl)-3-(6-fluoro-4′-isopropyl-[1,1′-biphenyl]-3-yl)-4-(3-fluoro-4-sulfamoylbenzyl)-1H-pyrazol-1-yl)thiazole-4-carboxylic acid]		< 1000
NS(=O)(=O)c1ccc(Cc2c(-c3cccc(C#Cc4ccc(C5CC5)s4)c3)nn(-c3nc(C(=O)O)cs3)c2CCC2CC2)cc1F [Compound 244, 2-(5-(2-cyclopropylethyl)-3-(3-((5-cyclopropylthiophen-2-yl)ethynyl)phenyl)-4-(3-fluoro-4-sulfamoylbenzyl)-1H-pyrazol-1-yl)thiazole-4-carboxylic acid]	100 to 1000	
NS(=O)(=O)c1ccc(Cc2c(-c3cccc(C#Cc4ccc(C5CCC5)s4)c3)nn(-c3nc(C(=O)O)cs3)c2CC2CC2)cc1F [Compound 245, 2-(3-(3-((5-cyclobutylthiophen-2-yl)ethynyl)phenyl)-5-(cyclopropylmethyl)-4-(3-fluoro-4-sulfamoylbenzyl)-1H-pyrazol-1-yl)thiazole-4-carboxylic acid]	100 to 1000	
NS(=O)(=O)c1ccc(Cc2c(-c3cccc(C#Cc4ccc(C5CCC5)s4)c3)nn(-c3nc(C(=O)O)cs3)c2CCC2CC2)cc1F [Compound 246, 2-(3-(3-((5-cyclobutylthiophen-2-yl)ethynyl)phenyl)-5-(2-cyclopropylethyl)-4-(3-fluoro-4-sulfamoylbenzyl)-1H-pyrazol-1-yl)thiazole-4-carboxylic acid]	100 to 1000	
Cc1ccc(C#Cc2cccc(-c3nn(-c4nc(C(=O)O)co4)c(CC4CC4)c3Cc3ccc(S(N)(=O)=O)c(F)c3)c2)s1 [Compound 247, 2-(5-(cyclopropylmethyl)-4-(3-fluoro-4-sulfamoylbenzyl)-3-(3-((5-methylthiophen-2-yl)ethynyl)phenyl)-1H-pyrazol-1-yl)oxazole-4-carboxylic acid]	< 100	
Cc1ccc(C#Cc2cccc(-c3nn(-c4nc(C(=O)O)cs4)c(CCCC4CC4)c3Cc3ccc(S(N)(=O)=O)c(F)c3)c2)s1 [Compound 248, 2-(5-(3-cyclopropylpropyl)-4-(3-fluoro-4-sulfamoylbenzyl)-3-(3-((5-methylthiophen-2-yl)ethynyl)phenyl)-1H-pyrazol-1-yl)thiazole-4-carboxylic acid]	100 to 1000	
Cc1ccc(C#Cc2cc(-c3nn(-c4nc(C(=O)O)cs4)c(CC4CC4)c3Cc3ccc(S(N)(=O)=O)c(F)c3)ccc2F)s1 [Compound 249, 2-(5-(cyclopropylmethyl)-3-(4-fluoro-3-((5-methylthiophen-2-yl)ethynyl)phenyl)-4-(3-fluoro-4-sulfamoylbenzyl)-1H-pyrazol-1-yl)thiazole-4-carboxylic acid]	< 100	

Results, then the compound that gave them:

IC50 (Human LDHA) [nM]	IC50 (MiaPaCa2 cells) [nM]	SMILES
< 100	< 1000	CC1CC=C(c2cc(-c3nn(-c4nc(C(=O)O)cs4)c(CC4CC4)c3Cc3ccc(S(N)(=O)=O)c(F)c3)ccc2F)CC1 (stereo not drawn) [Compound 101, 2-(5-(cyclopropylmethyl)-3-(6-fluoro-4′-methyl-2′,3′,4′,5′-tetrahydro-[1,1′-biphenyl]-3-yl)-4-(3-fluoro-4-sulfamoylbenzyl)-1H-pyrazol-1-yl)thiazole-4-carboxylic acid]
< 100	< 1000	NS(=O)(=O)c1ccc(Cc2c(-c3ccc(F)c(C4=CCC(C(F)(F)F)CC4)c3)nn(-c3nc(C(=O)O)cs3)c2CC2CC2)cc1F (stereo not drawn) [Compound 102, 2-(5-(cyclopropylmethyl)-3-(6-fluoro-4′-(trifluoromethyl)-2′,3′,4′,5′-tetrahydro-[1,1′-biphenyl]-3-yl)-4-(3-fluoro-4-sulfamoylbenzyl)-1H-pyrazol-1-yl)thiazole-4-carboxylic acid]
< 100	< 1000	CC1CCCC=C1c1cc(-c2nn(-c3nc(C(=O)O)cs3)c(CC3CC3)c2Cc2ccc(S(N)(=O)=O)c(F)c2)ccc1F (stereo not drawn) [Compound 103, 2-(5-(cyclopropylmethyl)-3-(6-fluoro-2′-methyl-2′,3′,4′,5′-tetrahydro-[1,1′-biphenyl]-3-yl)-4-(3-fluoro-4-sulfamoylbenzyl)-1H-pyrazol-1-yl)thiazole-4-carboxylic acid]
< 100	< 1000	COC1CC=C(c2cc(-c3nn(-c4nc(C(=O)O)cs4)c(CC4CC4)c3Cc3ccc(S(N)(=O)=O)c(F)c3)ccc2F)CC1 (stereo not drawn) [Compound 104, 2-(5-(cyclopropylmethyl)-3-(6-fluoro-4′-methoxy-2′,3′,4′,5′-tetrahydro-[1,1′-biphenyl]-3-yl)-4-(3-fluoro-4-sulfamoylbenzyl)-1H-pyrazol-1-yl) thiazole-4-carboxylic acid]
< 100	< 1000	NS(=O)(=O)c1ccc(Cc2c(-c3ccc(F)c(C4=Cc5ccccc5C4)c3)nn(-c3nc(C(=O)O)cs3)c2CC2CC2)cc1F [Compound 105, 2-(5-(cyclopropylmethyl)-3-(4-fluoro-3-(1H-inden-2-yl)phenyl)-4-(3-fluoro-4-sulfamoylbenzyl)-1H-pyrazol-1-yl)thiazole-4-carboxylic acid]
< 100	< 1000	CC1(C)CC=C(c2cc(-c3nn(-c4nc(C(=O)O)cs4)c(CC4CC4)c3Cc3ccc(S(N)(=O)=O)c(F)c3)ccc2F)CC1 [Compound 106, 2-(5-(cyclopropylmethyl)-3-(6-fluoro-4′,4′-dimethyl-2′,3′,4′,5′-tetrahydro-[1,1′-biphenyl]-3-yl)-4-(3-fluoro-4-sulfamoylbenzyl)-1H-pyrazol-1-yl) thiazole-4-carboxylic acid]
< 100	< 1000	NS(=O)(=O)c1ccc(Cc2c(-c3ccc(F)c(C4=CCC(F)(F)CC4)c3)nn(-c3nc(C(=O)O)cs3)c2CC2CC2)cc1F [Compound 107, 2-(5-(cyclopropylmethyl)-4-(3-fluoro-4-sulfamoylbenzyl)-3-(4′,4′,6-trifluoro-2′,3′,4′,5′-tetrahydro-[1,1′-biphenyl]-3-yl)-1H-pyrazol-1-yl)thiazole-4-carboxylic acid]
< 100	< 1000	NS(=O)(=O)c1ccc(Cc2c(-c3ccc(F)c(C4=CCC5(CC4)CC5)c3)nn(-c3nc(C(=O)O)cs3)c2CC2CC2)cc1F [Compound 108, 2-(5-(cyclopropylmethyl)-3-(4-fluoro-3-(spiro[2.5]oct-5-en-6-yl)phenyl)-4-(3-fluoro-4-sulfamoylbenzyl)-1H-pyrazol-1-yl)thiazole-4-carboxylic acid]
< 100	< 1000	Cc1ncc(C#Cc2cc(-c3nn(-c4nc(C(=O)O)cs4)c(CC4CC4)c3Cc3ccc(S(N)(=O)=O)c(F)c3)ccc2F)s1 [Compound 111, 2-(5-(cyclopropylmethyl)-3-(4-fluoro-3-((2-methylthiazol-5-yl)ethynyl)phenyl)-4-(3-fluoro-4-sulfamoylbenzyl)-1H-pyrazol-1-yl)thiazole-4-carboxylic acid]
